Where two headings read alike, the source gives them in different places.
What was measured:
HIV-1 RT = HIV-1 RT (Human immunodeficiency virus type 1 group M subtype B, UniProt P04585); experiment: HIV-1 Reverse Transcriptase Assay: Inhibitor IC50 Determination; type: biochemical
Experimental: HIV-1 Reverse Transcriptase Assay: Inhibitor IC50 Determination
HIV-1 RT assay was carried out in 96-well Millipore filtermat NOB50 plates using purified recombinant enzyme and a poly(rA)/oligo(dT)16 template-primer in a total volume of 50 μL. The assay constituents were 50 mM Tris/HCl, 50 mM NaCl, 1 mM EDTA, 6 mM MgC2, 5 μM dTTP, 0.1 μCi [^3H] dTTP, 5 μg/ml poly (rA) pre annealed to 2.5 μg/ml oligo (dT)16 and a range of inhibitor concentrations in a final concentration of 10% DMSO. Reactions were initiated by adding 5 nM HIV-1 RT and after incubation at 37° C. for 30 min, they were stopped by the addition of 50 μl ice cold 20% TCA and allowed to precipitate at 4° C. for 30 min. The precipitates were collected by applying vacuum to the plate and sequentially washing with 2×200 μl of 10% TCA and 2×200 μl 70% ethanol. Finally the plates were dried and radioactivity counted in a Wallac Microbeta 1450 after the addition of 15 VI scintillation fluid per well. IC50's were calculated by plotting % inhibition versus log10 inhibitor concentrations.

HXB2-strain of HIV = experiment: Antiviral assay: protection of HIV-infected MT4 cells from cell death (MTT); type: cell-based; conditions: Human immunodeficiency virus 1, 120 h; MT4 cells infected with HXB2-strain of HIV, 5 d, MTT cell viability
Experimental: Anti-HIV antiviral activity was assessed using an adaptation of the method of Pauwels et al. {Pauwels et al., 1988, J Virol Methods 20:309-321}. The method is based on the ability of compounds to protect HIV-infected T lymphoblastoid cells (MT4 cells) from cell-death mediated by the infection. The endpoint of the assay was calculated as the concentration of compound at which the cell viability of the culture was preserved by 50% (‘50% inhibitory concentration’, IC50). The cell viability of a culture was determined by the uptake of soluble, yellow 3-[4,5-dimethylthiazol-2-yl]-2,5-diphenyltetrazolium bromide (MTT) and its reduction to a purple insoluble formazan salt. After solubilization, spectrophotometric methods were employed to measure the amount of formazan product.
MT4 cells were prepared to be in logarithmic-phase growth and a total of 2×10^6 cells infected with the HXB2-strain of HIV at a multiplicity of 0.0001 infectious units of virus per cell in a total volume of between 200-500 microliters. The cells were incubated with virus for one h at 37° C. before removal of virus. The cells are then washed in 0.01 M phosphate buffered saline, pH 7.2 before being resuspensed in culture medium for incubation in culture with serial dilutions of test compound. The culture medium used was RPMI 1640 without phenol red, supplemented with penicillin, streptomycin, L-glutamine and 10% fetal calf serum (GM10).
Test compounds were prepared as 2 mM solutions in dimethyl sulphoxide (DMSO). Four replicate, serial 2-fold dilutions in GM10 were then prepared and 50 microliters amounts placed in 96-well plates over a final nanomolar concentration range of 625-1.22. Fifty microliters GM10 and 3.5×10^4 infected cells were then added to each well. Control cultures containing no cells (blank), uninfected cells (100% viability; 4 replicates) and infected cells without compound (total virus-mediated cell death; 4 replicates) were also prepared. The cultures were then incubated at 37° C. in a humidified atmosphere of 5% CO2 in air for 5 d.
A fresh solution of 5 mg/mL MTT was prepared in 0.01 M phosphate buffered saline, pH 7.2 and 20 microliters added to each culture. The cultures were further incubated as before for 2 h. They were then mixed by pipetting up and down and 170 microliters of Triton X-100 in acidified isopropanol (10% v/v Triton X-100 in 1:250 mixture of concentrated HCl in isopropanol). When the formazan deposit was fully solubilized by further mixing, the absorbance (OD) of the cultures was measured at 540 nm and 690 nm wavelength (690 nm readings were used as blanks for artefacts between wells). The percent protection for each treated culture can be calculated from the equation: [formula]

[1] = purified recombinant enzyme, poly(rA)/oligo(dT)16 template-primer, 37° C. 30 min, read-out: RT IC50/nM

Row | Structure (SMILES) | IC50 (HIV-1 RT; [1]) [nM] | IC50 (HXB2-strain of HIV) [nM] | IC50 (HIV-1 RT) [nM]
1 | CC(C)n1nc(CO)c(Cc2cccs2)c1Sc1cc(Cl)cc(Cl)c1 | 434 | 93 | –
2 | CC(C)n1nc(CO)c(COCc2cccc(C#N)c2)c1Sc1cc(Cl)cc(Cl)c1 | 250 | – | –
3 | CC(C)n1nc(CNS(C)(=O)=O)c(Cc2ccncc2)c1Sc1cc(Cl)cc(Cl)c1 | 7920 | – | –
4 | CC(C)n1nc(CNC(N)=O)c(Cc2ccncc2)c1Sc1cc(Cl)cc(Cl)c1 | 44 | 1 | –
5 | COC(=O)NCc1nn(C(C)C)c(Sc2cc(Cl)cc(Cl)c2)c1Cc1ccncc1 | 525 | – | –
6 | CC(C)n1nc(COC(N)=O)c(COCc2ccncc2)c1Sc1cc(Cl)cc(Cl)c1 | 99 | 13 | –
7 | CCc1c(COC(N)=O)nn(C(C)C)c1Sc1cc(Cl)cc(Cl)c1 | 61 | – | –
8 | CCn1nc(CO)c(Cc2ccncc2)c1Sc1cc(Cl)cc(Cl)c1 | 183 | 30 | –
9 | CC(C)n1nc(COC(N)=O)c(Cc2ccncc2)c1Sc1cc(Cl)cc(Br)c1 | 31 | 3 | –
10 | CC(C)n1nc(COC(N)=O)c(Cc2ccncc2)c1Sc1cc(Cl)cc(Cl)c1 | – | 1 | 32
11 | CC(C)n1nc(CN)c(Cc2ccncc2)c1Sc1cc(Cl)cc(Cl)c1 | 714 | 7 | –
12 | CC(C)n1nc(COC(N)=O)c(CO)c1Sc1cc(Cl)cc(Cl)c1 | 6300 | – | –
13 | CC(C)n1nc(CO)c(Cc2ccc(F)c(F)c2)c1Sc1cc(Cl)cc(Cl)c1 | 123 | – | –
14 | CC(C)n1nc(CO)c(Cc2ccncc2)c1Sc1cc(Cl)cc(Cl)c1 | 62 | 1.3 | –
15 | CC(C)n1nc(COC(N)=O)c(Cc2cccs2)c1Sc1cc(Cl)cc(Cl)c1 | 211 | 30 | –
16 | COc1cc(Cc2c(CO)nn(C(C)C)c2Sc2cc(Cl)cc(Cl)c2)ccn1 | 51 | 38 | –
17 | CC(C)n1nc(CO)c(Cc2ccncc2)c1Sc1cc(F)cc(F)c1 | 206 | 6 | –
18 | Cc1ncc(Br)c(Cc2c(CO)nn(C(C)C)c2Sc2cc(Cl)cc(Cl)c2)n1 | 518 | – | –
